The record followed here is patent US7491501B2, “Methods for identifying modulators of intracellular aggregate formation” (Auburn University, priority 2003, dated 2009).

For this test, the system named is 26S proteasome. Description: In vitro deubiquitination assay of K63 polyubiquitinated tau with 26S proteasome. The format is biochemical. As to conditions: Ub-H 1 or 10 μM, 26S proteasome 40 or 80 nM, 2 h 37° C. As for the experimental part:
In Vitro Ubiquitination and Deubiquitination Assay—His-tagged tau construct was expressed in HEK 293 cells by calcium phosphate method. The cells were collected, washed with PBS and lysed with SDS lysis buffer. The lysate was immunoprecipitated with tau antibody and bound to secondary antibody coupled with agarose beads. Fifty microliters of the reaction buffer (50 mM Tris pH 7.5, 2.5 mM MgCl2, 2 mM DTT, 2 mM ATP) containing 100 ng El, 200 ng UbcH7 (E2), 100 μg TRAF6 (E3) and 5 μg of GST-WT Ub, or its mutants K29R, K48R, and K63R Ub was added to the immunoprecipitated tau. The beads were incubated at 37° C. for 2 h by continuous shaking, then washed three times with reaction buffer. The proteins were released by boiling for 2 min in SDS-PAGE sample buffer, electrophoresed on 7.5% SDS-PAGE and western blotted with antibody to ubiquitin and tau. For the in vitro deubiquitination assay, the ubiquitinated tau was treated with 26S proteasome (40 or 80 nM) in 30 μl of buffer containing 50 mM Tris-HCl, pH 7.5, 2 mM MgCl2, 2 mM ATP for 2 h at 37° C. The deubiquitination of tau by the 26S proteasome was blocked by the addition of ubiquitin aldehyde (Ub-H), an inhibitor of ubiquitin isopeptidases (1 or 10 μM). The samples were boiled in sample buffer, resolved by 7.5% SDS-PAGE and western blotted with anti-ubiquitin or anti-tau. […]

ubiquitin aldehyde [Ub-H]: the “polyubiquitin degradation (deubiquitination of tau) by 26S proteasome” value is “inhibited”.
